Values joined by “and” are separate entries in the source; they are usually repeats but may differ in a detail not shown here. Identical values can stand only once. Toxic doses and inconclusive results are not listed. How the source made its calls: active means survival T/C of 150% or more; inactive means T/C below 125% in these data.
Test system: CD2F1 mice, L1210 leukemia ip, survival T/C
Assay: NCI In Vivo Anticancer Drug Screen. Data for tumor model L1210 Leukemia (intraperitoneal) in CD2F1 (CDF1) mice
Conditions: endpoint: mean survival time, higher = longer survival
Summary of the method: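 Each value reflects a quotient of treated over vehicle control outcomes in mice with a transplanted tumor.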

[1] = dose: 100.0 mg/kg/injection, schedule: Q04DX003 (ip), vehicle: saline
[2] = dose: 200.0 mg/kg/injection, schedule: Q04DX003 (ip), vehicle: saline
[3] = dose: 100.0 mg/kg/injection, schedule: Q04DX003 (ip), vehicle: saline with Tween-80
[4] = dose: 200.0 mg/kg/injection, schedule: Q04DX003 (ip), vehicle: saline with Tween-80
[5] = dose: 400.0 mg/kg/injection, schedule: Q04DX003 (ip), vehicle: saline with Tween-80
[6] = dose: 50.0 mg/kg/injection, schedule: Q01DX009 (ip), vehicle: saline with Tween-80
[7] = dose: 100.0 mg/kg/injection, schedule: Q01DX001 (ip), vehicle: saline with Tween-80
[8] = dose: 100.0 mg/kg/injection, schedule: Q01DX009 (ip), vehicle: saline with Tween-80
[9] = dose: 100.0 mg/kg/injection, schedule: Q01DX001 (ip), vehicle: saline
[10] = dose: 200.0 mg/kg/injection, schedule: Q01DX001 (ip), vehicle: saline
[11] = dose: 400.0 mg/kg/injection, schedule: Q01DX001 (ip), vehicle: saline
[12] = dose: 400.0 mg/kg/injection, schedule: Q01DX001 (ip), vehicle: saline with Tween-80
[13] = dose: 200.0 mg/kg/injection, schedule: Q01DX009 (ip), vehicle: saline
[14] = dose: 200.0 mg/kg/injection, schedule: Q01DX009 (ip), vehicle: saline with Tween-80
[15] = dose: 400.0 mg/kg/injection, schedule: Q01DX009 (ip), vehicle: saline with Tween-80
[16] = dose: 25.0 mg/kg/injection, schedule: Q04DX002 (ip), vehicle: saline with Tween-80
[17] = dose: 50.0 mg/kg/injection, schedule: Q04DX002 (ip), vehicle: saline with Tween-80
[18] = dose: 100.0 mg/kg/injection, schedule: Q04DX002 (ip), vehicle: saline with Tween-80

Measured: T/C

CCCC[P+](CCCC)(CCCC)Cc1ccc([N+](=O)[O-])cc1
inactive: dose: 12.5 mg/kg/injection, schedule: Q01DX009 (ip), vehicle: Klucel (hydroxypropylcellulose) (HPC) 104 % of control | dose: 25.0 mg/kg/injection, schedule: Q01DX009 (ip), vehicle: Klucel (hydroxypropylcellulose) (HPC) 96 % of control | dose: 25.0 mg/kg/injection, schedule: Q04DX003 (ip), vehicle: Klucel (hydroxypropylcellulose) (HPC) 94 % of control | dose: 50.0 mg/kg/injection, schedule: Q01DX001 (ip), vehicle: Klucel (hydroxypropylcellulose) (HPC) 96 % of control | dose: 50.0 mg/kg/injection, schedule: Q01DX009 (ip), vehicle: Klucel (hydroxypropylcellulose) (HPC) 115 % of control | dose: 50.0 mg/kg/injection, schedule: Q04DX002 (ip), vehicle: Klucel (hydroxypropylcellulose) (HPC) 96 % of control | dose: 50.0 mg/kg/injection, schedule: Q04DX003 (ip), vehicle: Klucel (hydroxypropylcellulose) (HPC) 94 % of control

CCCCNc1c(C(=O)N2CCCCC2)cnc2c1cnn2CC
inactive: [1] 97 % of control | [2] 101 % of control

CC1=C2CC3C(CC2(C)C(=O)C=C1)OC(=O)C3C (centres undefined)
inactive: [3] 93 % of control | [4] 89 % of control | [5] 98 % of control

O=[N+]([O-])c1cccc(N=Nn2cccc2)c1
inactive: dose: 25.0 mg/kg/injection, schedule: Q01DX009 (ip), vehicle: saline with Tween-80 86 % of control | [6] 106 % of control | [7] 98 % of control | [8] 102 % of control

CC(=O)c1cc(O)ccc1O
inactive: [9] 101 % of control | [10] 98 % of control | [11] 98 % of control

NCCN
inactive: [7] 106 % of control | [12] 97 % of control

CC1C(C)C1Cl (centres undefined)
inactive: dose: 50.0 mg/kg/injection, schedule: Q01DX005 (ip), vehicle: saline 95 % of control | dose: 50.0 mg/kg/injection, schedule: Q01DX009 (ip), vehicle: saline 89 % of control | dose: 50.0 mg/kg/injection, schedule: Q04DX002 (ip), vehicle: saline 94 % of control | dose: 100.0 mg/kg/injection, schedule: Q01DX005 (ip), vehicle: saline 95 % of control | dose: 100.0 mg/kg/injection, schedule: Q01DX009 (ip), vehicle: saline 93 % of control | dose: 100.0 mg/kg/injection, schedule: Q04DX002 (ip), vehicle: saline 97 % of control | dose: 200.0 mg/kg/injection, schedule: Q01DX005 (ip), vehicle: saline 109 % of control | [13] 93 % of control | dose: 200.0 mg/kg/injection, schedule: Q04DX002 (ip), vehicle: saline 94 % of control | dose: 400.0 mg/kg/injection, schedule: Q01DX005 (ip), vehicle: saline 106 % of control | dose: 400.0 mg/kg/injection, schedule: Q01DX009 (ip), vehicle: saline 93 % of control | dose: 400.0 mg/kg/injection, schedule: Q04DX002 (ip), vehicle: saline 97 % of control

COc1cc2cc3c4cc(OC)c(OC)cc4cc[n+]3c(C)c2cc1OC
inactive: [9] 120 % of control | dose: 132.0 mg/kg/injection, schedule: Q04DX003 (ip), vehicle: saline sonified 122 % of control | [10] 122 % of control | dose: 200.0 mg/kg/injection, schedule: Q04DX003 (ip), vehicle: saline sonified 114 % of control | [2] 122 % of control | dose: 300.0 mg/kg/injection, schedule: Q04DX003 (ip), vehicle: saline sonified 123 % of control | [11] 109 % of control | dose: 400.0 mg/kg/injection, schedule: Q04DX003 (ip), vehicle: saline 116 % of control

C#CC1(OC(=O)c2ccccc2)CCCCC1
inactive: [3] 98 % of control | [4] 96 % of control | [5] 102 % of control

C[C@@H]1C[C@H]2CC[C@H](O2)[C@H](C)C(=O)O[C@@H](C)C[C@@H]2CC[C@@H](O2)[C@@H](C)C(=O)O[C@H](C)C[C@H]2CC[C@H](O2)[C@H](C)C(=O)O[C@@H](C)C[C@@H]2CC[C@@H](O2)[C@@H](C)C(=O)O1
inactive: dose: 8.0 mg/kg/injection, schedule: Q01DX008 (iv), vehicle: saline 98 % of control | dose: 16.0 mg/kg/injection, schedule: Q01DX008 (iv), vehicle: saline 98 % of control | dose: 32.0 mg/kg/injection, schedule: Q01DX008 (iv), vehicle: saline 95 % of control

CCCCOC(=O)CCCC(=O)OCCCC
inactive: [8] 108 % of control | [3] 95 % of control | [14] 104 % of control | [4] 93 % of control | [15] 103 % of control | [5] 95 % of control

C[P+]1(c2ccccc2)CCC(N)=C(C#N)C1 (centres undefined)
inactive: [16] 97 % of control | [17] 101 % of control | [18] 101 % of control

O=C(c1ccccc1)C(O)(CC(c1ccccc1)[P+](c1ccccc1)(c1ccccc1)c1ccccc1)c1ccccc1 (centres undefined)
inactive: dose: 6.25 mg/kg/injection, schedule: Q01DX001 (ip), vehicle: saline with Tween-80 103 % of control | dose: 12.5 mg/kg/injection, schedule: Q01DX001 (ip), vehicle: saline with Tween-80 96 % of control | dose: 25.0 mg/kg/injection, schedule: Q01DX001 (ip), vehicle: saline with Tween-80 100 % of control

O=c1[nH]cnc2c1CN(c1ccc(Cl)cc1)C2
inactive: dose: 75.0 mg/kg/injection, schedule: Q01DX001 (ip), vehicle: saline 101 % of control | dose: 150.0 mg/kg/injection, schedule: Q01DX001 (ip), vehicle: saline 90 % of control | dose: 300.0 mg/kg/injection, schedule: Q01DX001 (ip), vehicle: saline 93 % of control

COc1cc(/C=N\O)nc(-c2ccccn2)c1
inactive: [9] 107 % of control | [10] 98 % of control | [11] 97 % of control

CCCCCCCCCc1nc(N)nc(N)n1
inactive: [6] 104 % of control | [8] 104 % of control | [14] 104 % of control

COC(=O)C1(N)CCCC1
inactive: dose: 25.0 mg/kg/injection, schedule: Q04DX003 (ip), vehicle: saline 101 % of control | dose: 50.0 mg/kg/injection, schedule: Q04DX003 (ip), vehicle: saline 100 % of control | [3] 105 % of control | [1] 113 % of control | [13] 121 % of control | [4] 122 % of control

Nc1cc2nc3ccccc3sc-2cc1=O
inactive: [6] 102 % of control | [8] 102 % of control | [14] 102 % of control | [15] 89 % of control

CCCNC(=O)OCC#CC#CCOC(=O)NCCC
inactive: dose: 100.0 mg/kg/injection, schedule: Q04DX003 (ip), vehicle: Klucel (hydroxypropylcellulose) (HPC) 94 % of control | dose: 200.0 mg/kg/injection, schedule: Q04DX003 (ip), vehicle: Klucel (hydroxypropylcellulose) (HPC) 98 % of control | dose: 400.0 mg/kg/injection, schedule: Q04DX003 (ip), vehicle: Klucel (hydroxypropylcellulose) (HPC) 96 % of control

COc1ccc2c(c1O)C1CCCCC13CCN(C)C3C2 (centres undefined)
inactive: [16] 96 % of control | [17] 96 % of control | [7] 110 % of control | [18] 93 % of control and 97 % of control | dose: 200.0 mg/kg/injection, schedule: Q01DX001 (ip), vehicle: saline with Tween-80 98 % of control | [12] 100 % of control

ON(C(=Nc1ccccc1)c1ccccc1Cl)c1ccccc1
inactive: dose: 6.25 mg/kg/injection, schedule: Q01DX009 (ip), vehicle: saline with Tween-80 106 % of control | dose: 6.25 mg/kg/injection, schedule: Q04DX003 (ip), vehicle: saline with Tween-80 102 % of control | dose: 12.5 mg/kg/injection, schedule: Q01DX009 (ip), vehicle: saline with Tween-80 101 % of control | dose: 12.5 mg/kg/injection, schedule: Q04DX003 (ip), vehicle: saline with Tween-80 104 % of control | dose: 25.0 mg/kg/injection, schedule: Q04DX003 (ip), vehicle: saline with Tween-80 102 % of control | [9] 102 % of control | [10] 102 % of control

Source: PubChem BioAssay AID256 (DTP/NCI, 2004)
